Reference: US20230095912A1, “Composition and Methods for Selective Degradation of Engineered Proteins” (Celgene Corporation, priority 2021, published 2023)
Like-named read-outs stand apart in the source and are kept apart here.

Experiments:
[1] = target: T1, CD19 CARs tagged with IKZF1 ZNF2_ZNF3 Q1F (Homo sapiens, UniProt Q13422, Q146F); experiment: Small-molecule screen: Q1F degron-tagged CD19 CAR levels in Jurkat cells, flow cytometry; format: cell-based; conditions: for Ymin (%): minimum percent protein remaining
T1 construct: EC50 (Q1F degron); other: Jurkat cells, 18 hours, CAR levels normalized to no drug; Ymin (Q1F degron); Ymin (%); minimum percent protein remaining; Nluc reporter
Experimental: A set of potential degron-targeting compounds was screened against the Q1F degron, resulting in a set of potent degron/small-molecule pairs. Lentiviral vectors containing CD19 CARs tagged with IKZF1 ZNF2_ZNF3 Q1F Nluc were transduced into Jurkat cells. The CD19 CAR was similar to the CD19 CAR in Example 2, but comprising the ZNF2_ZNF3 Q1F degron (SEQ ID NO: 19). Transduced cells were treated with a titration of each small molecule or no drug and then incubated at 37° C. for 18 hours. Cells were washed and stained with appropriate staining reagent to measure CAR levels. The cells were incubated at 4° C. in the staining reagents for 20 mins and then washed 3 times before being read on the flow cytometer. CAR levels were normalized to cells that had not been treated with drug. EC50 and Ymin values were calculated using the resulting titration curve. This identified small molecules that potently degraded the Q1F degron-tagged CARs (Table 1).

ePL-tagged CK1a = target: T2, ePL-tagged CK1a (Homo sapiens, UniProt P48729+Q96SW2); experiment: ePL-tagged substrate degradation in MDS-L cells; format: cell-based; conditions: for DC50: CK1a, MDS-L cells, 4 hours
T2 construct: expressed in transfected cells
Experimental: (§1) DF15 multiple myeloma cells stably expressing ePL-tagged Aiolos, Ikaros, or GSPT1, and MDS-L cells stably expressing ePL-tagged CK1a were generated via lentiviral infection with pLOC-ePL-Aiolos (or Ikaros, GSPT1, or CK1a). […] Compounds were dispensed by an acoustic dispenser (ATS acoustic transfer system from EDC Biosystems) into a 384-well plate in a 10-point dose response curve using 3-fold dilutions starting at 10 μM and going down to […]. Then, 25 μL of media (RPMI-1640+10% heat inactivated FBS+25 mM Hepes+1 mM Na pyruvate+1× NEAA+1×Pen Strep Glutamine) containing 5000 of DF15 or MSD-L cells was dispensed per well. Assay plates were incubated at 37° C. with 5% CO2 for 4 hours except 20 hours for GSPT1. After incubation, 25 μL of the InCELL Hunter detection reagent working solution (DiscoverX, catalogue no. 96-0002, Fremont, Calif.) was added to each well and incubated at room temperature for 60 min protected from light. After 60 min, luminescence was read on an Envision or PHERAstar luminescence reader.
(§2) To determine the EC50 value of a compound for the degradation of a given substrate (concentration of compound that achieves half the maximum degradation observed), a four-parameter logistic model (sigmoidal dose—response model) (FIT=(A+{(B−A)/1+[(C/x)D]})) where C is the inflection point (EC50), D is the […], and A and B are the low and high limits of the fit, respectively) was used. All substrate degradation curves were processed and evaluated using ActivityBase (IDBS), a data analysis software package. Ymin is minimum percent protein remaining.

Helios = target: T3, Helios (Homo sapiens, UniProt Q96SW2+Q9UKS7); experiment: Helios HiBit degradation in Jurkat cells; format: cell-based; conditions: for DC50: Helios, Jurkat/Helios/HiBit cells, 18 hr, read-out: EC50 (the source's name)
T3 construct: endogenous in cells; host or cells: Jurkat/Helios/HiBit cells (CRISPR/Cas9 knock-in)
Experimental: For Helios, a stable Jurkat cell line was engineered using CRISPR/Cas9 to insert an in-frame HiBit tag into the carboxy-terminal reading frame of the IKZF2 gene. Test compounds were transferred to 1536 well plates using an acoustic dispenser, and Jurkat/Helios/HiBit cells in DMEM/10% FCS were plated at 10,000 cells/well in a final volume of 5 ul. Cells were incubated at 37C, 95% RH for 18 hr. Luciferase activity was measured by adding 2 ul/well of Nano-Glo reagent (Promega), incubating at RT for 30 min, and reading luminescence on a microtiter plate reader.
(§3) All substrate degradation curves were processed and evaluated using ActivityBase (IDBS), a data analysis software package. Ymin is minimum percent protein remaining.

[2] = tested on: ZNF2_3 Q1F tagged CD19 CAR; experiment: In vivo degradation of degron-tagged CAR in non-tumor bearing NSG mice
Experimental: (§4) The ability to degrade ZNF2_3 Q1F tagged CAR in vivo was evaluated. A lentiviral vector encoding ZNF2_3 Q1F tagged CD19 CAR was transduced into activated primary T cells. Transduced cells were expanded for 10 days in media supplemented with IL2, IL7 and IL15, then frozen.
To determine the ability to degrade degron-tagged CAR in vivo in the absence of tumor, CAR T cells were thawed, rested for 24 hours and adoptively transferred into non-tumor bearing female NSG™ immunodeficient mice at a dose of 2×10^6 cells per animal. After 24 hours, mice were dosed orally with vehicle, 0.85 or 8.5 mg/kg Compound D (FIG. 18B). Blood was drawn 8, 24, 48 and 72 hours later (FIG. 18A), and the proportion of CAR+ T cells, as determined by staining with anti-scFv and anti-CD3 antibodies, was evaluated by flow.

[3] = tested on: CD19 CARs tagged with IKZF1 ZNF2_ZNF3 Q1F; experiment: Small-molecule screen: Q1F degron-tagged CD19 CAR levels in Jurkat cells, flow cytometry; format: cell-based, human; conditions: versus Helios, Aiolos, Ikaros, GSPT1, CK1a
ePL-tagged Aiolos = target: T4, ePL-tagged Aiolos (Homo sapiens, UniProt Q96SW2+Q9UKT9); experiment: ePL-tagged substrate degradation in DF15 multiple myeloma cells; format: cell-based; conditions: for DC50: Aiolos, DF15 cells, 4 hours, read-out: EC50 (the source's name)
T4 construct: expressed in transfected cells
Experimental: as §1, §3

ePL-tagged Ikaros = target: T5, ePL-tagged Ikaros (Homo sapiens, UniProt Q13422+Q96SW2); experiment: as above; format: cell-based; conditions: for DC50: Ikaros, DF15 cells, 4 hours
T5 construct: expressed in transfected cells
Experimental: as §1, §2

ePL-tagged GSPT1 = target: T6, ePL-tagged GSPT1 (Homo sapiens, UniProt P15170+Q96SW2); experiment: as above; format: cell-based; conditions: for DC50: GSPT1, DF15 cells, 20 hours
T6 construct: expressed in transfected cells
Experimental: as §1, §2

[4] = tested on: ZNF2_3 Q1F tagged CD19 CAR; experiment: Raji xenograft model, degron-tagged CAR T down-regulation in NSG mice; format: in vivo; conditions: 6.85 mg/kg BID orally on days 0 and 1, Raji tumor
Experimental: as §4
To examine the down-regulation of degron-tagged CAR in vivo in a xenograft cancer model and the impact on CAR T function, female NSG™ mice were injected with 5×10^5 of Raji tumor cells stably expressing renilla luciferase. Six days later CAR T cells were thawed, rested for 24 hours and adoptively transferred into the mice at a dose of 2×10^6 cells per animal. Mice were dosed orally with vehicle or 6.85 mg/kg Compound D BID on days 0 and 1 (FIG. 19A). Blood was drawn and tumor fluorescence measured at D1, D3, and D10 (FIG. 19A), and the proportion of CAR+T cells, as determined by staining with anti-scFv and anti-CD3 antibodies, was evaluated by flow.

[5] = tested on: IKZF1 ZNF2_3 Q1F tagged CD19 CAR; experiment: Jurkat reporter assay (tdTomato), signaling of Q1F-tagged CAR after degradation; format: cell-based, human; conditions: 1 mM pre-treatment 12 hours, co-culture with CD19-expressing K562 8 hours
Experimental: A lentiviral vector encoding ZNF2_3 Q1F or Q1F/G6N tagged CD19 CAR was transduced into the reporter cell line. […] Levels of tdTomato in the form of the overall percent of positive cells (FIG. 12A), as well as mean fluorescence intensity (MFI, FIG. 12B) were assessed by flow cytometry. Degradation of CARs containing the ZNF2_3 Q1F degron decreased signaling by around 30% using 1 mM Compound C and by around 75% using Compound B; this relative difference correlates with the depth of degradation seen for each. Further, the reduction in activity depends upon having an intact G-motif, as the G6N mutation prevents inhibition.

IKZF1 ZNF2 Q1F = experiment: In vitro ubiquitination screen of Ikaros MBP-ZNF2 Q1 mutants; format: biochemical, human; conditions: western blot
From the text: Structural studies reveal that position 1 of the G-motif is in close proximity to the compound when substrates are bound to cereblon/compound complexes (not shown). Alignment of the G-motif degron sequences of the IKZF family (FIG. 8) and predicted degrons within other C2H2 zinc fingers (FIG. 9) reveal a diverse set of amino acids at this position. Therefore, to identify additional compound:degron pairs, mutations were made in the Q1 position of IKZF1 ZNF2, and potential compounds were screened for activity against these mutants. Plasmids were built containing Ikaros MBP-ZNF2 (aa 141-196) with alternate amino acids at the Q1 position, and an in vitro ubiquitination screen was conducted using various compounds including Compound B (FIG. 10A).

[6] = target: IKZF1 ZNF2-tagged CD19 CAR (Homo sapiens, UniProt Q13422+Q96SW2); conditions: jurkat, 1440 min
[7] = tested on: CAR tagged with ZNF2_3 containing a G6N mutation; experiment: Compound A titration on Jurkat cells with CAR tagged with ZNF2_3 G6N mutant degron; format: cell-based, human; conditions: any dose
From the text: The IKZF1 degrons were fused to the C-terminus. See SEQ ID NOs: 53-57. […] This configuration was therefore selected for further testing.

[8] = target: IKZF1 ZNF2_3 tagged CD19 CAR (Homo sapiens, UniProt Q13422+Q96SW2); conditions: 100 nM pre-treatment 48 hours, co-culture with CD19-expressing K562 8 hours
Experimental: Function of IKZF1 ZNF2 tagged CD19 CAR T cells (FIG. 2, ZNF2 amino acid sequence of SEQ ID NO: 15) was evaluated in a reporter assay, in which Jurkat cells have been engineered to express tdTomato when the Nur77 gene, associated with CAR and TCR activation, is actively transcribed (FIG. 3). Lentiviral vectors encoding ZNF-tagged CD19 CAR, untagged CD19 CAR, or an untagged BCMA CAR negative control were transduced into the Jurkat reporter cell line. Transduced cells were then co-cultured with a CD19-expressing K562 target cell line at 37° C. Levels of tdTomato, both in the form of mean fluorescence intensity (MFI) and the overall percent of positive cells, were assessed by flow cytometry every 2 hours for 12 hours.
A lentiviral vector encoding ZNF2_3 tagged or untagged CD19 CAR (see Example 2) was transduced into the reporter cell line. […] Levels of tdTomato in the form of mean fluorescence intensity (MFI) (FIG. 6B) and the overall percent of positive cells, as well as normalized CAR levels (FIG. 6C), were assessed by flow cytometry (FIG. 6A).

[9] = target: CAR tagged with WT ZNF2_3 (Homo sapiens, UniProt Q13422+Q96SW2); conditions: higher Compound A concentrations
Experimental: The IKZF1-ZNF2 degron was further modified to promote improved CAR degradation. Untagged CAR and CAR tagged with the original IKZF1-ZNF2 degrons were tested alongside alternate orientations and combinations of IKZF1 ZNF1, ZNF2, and ZNF3 (FIG. 5A). Each CAR included a CD28 transmembrane domain, a 4-1BB costimulatory domain, and a CD3 (CD3z) signaling domain. The IKZF1 degrons were fused to the C-terminus. […] A lentiviral vector encoding untagged CD19 CAR or CAR tagged with various configurations of IKZF1-ZNFs was transduced into the Jurkat cell line. Transduced cells were first co-cultured with a CD19-expressing K562 target cell line at 37° C. for 7.5 hours, and normalized levels of tdTomato reporter were assessed by flow cytometry.

[10] = tested on: WT IKZF1 ZNF2_3-tagged CARs; experiment: Erk phosphorylation (pErk) western blot after CAR degradation in Jurkat cells; format: cell-based, human; conditions: 1 mM pretreatment 12 hours, co-culture with CD19-expressing K562 30 minutes
Experimental: Abrogation of signaling with CAR degradation was assessed by measuring activation of the downstream MAPK signaling pathway. Jurkat cells were transduced with untagged, WT degron-tagged, or G6N degron-tagged CAR as described above.

Aurora A = conditions: 1 μM, 16 hours, knock-in Jurkat cells
From the text: (§5) The ability to knock degron tags in-frame into genomic loci to allow for compound-mediated modulation of endogenous protein levels was explored. Adeno-associated viral vectors were designed to deliver IKZF1 ZNF2_3-V5 tag-T2A-muThy1.1 tags to be knocked in-frame into the AURA (FIG. […]) or TOX locus (FIG. 20C-20D) in Jurkat cells in both the N- and C-terminal orientations. Jurkats were then electroporated with Cas9/guide RNA ribonucleoproteins. […] Cells were then pelleted, lysed, run on a denaturing protein gel, transferred to a membrane, probed with antibody and visualized with film.

tagged TOX = conditions: 1 μM, 16 hours, knock-in Jurkat cells
From the text: as §5

[11] = Degron Q1F (from Table 1), read-out: EC50 (the source's name)
[12] = Jurkat assay described in Example 5, read-out: EC50 for the Q1F degron
[13] = Jurkat cells, 18 hours, CAR levels normalized to no drug
[14] = Jurkat cells, 18 hours, CAR levels normalized to no drug, read-out: EC50 (Q1F degron)
[15] = read-out: EC50 (the source's name)

T5 sequence (Q13422 whole entry): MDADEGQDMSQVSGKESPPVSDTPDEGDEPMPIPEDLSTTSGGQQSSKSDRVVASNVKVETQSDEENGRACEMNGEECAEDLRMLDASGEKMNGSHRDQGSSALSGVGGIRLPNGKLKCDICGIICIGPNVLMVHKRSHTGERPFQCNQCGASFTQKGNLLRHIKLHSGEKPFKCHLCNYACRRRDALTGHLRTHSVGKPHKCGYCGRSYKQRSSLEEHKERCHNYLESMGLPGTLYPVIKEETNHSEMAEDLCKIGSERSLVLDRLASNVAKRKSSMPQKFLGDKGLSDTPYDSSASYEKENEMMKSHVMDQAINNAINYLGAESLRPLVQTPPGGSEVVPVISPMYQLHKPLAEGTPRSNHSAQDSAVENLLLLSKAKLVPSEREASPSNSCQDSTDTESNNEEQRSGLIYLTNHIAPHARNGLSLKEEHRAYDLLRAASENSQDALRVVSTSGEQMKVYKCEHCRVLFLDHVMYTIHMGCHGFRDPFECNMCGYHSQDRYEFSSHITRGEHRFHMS
T5 sequence (Q96SW2 whole entry): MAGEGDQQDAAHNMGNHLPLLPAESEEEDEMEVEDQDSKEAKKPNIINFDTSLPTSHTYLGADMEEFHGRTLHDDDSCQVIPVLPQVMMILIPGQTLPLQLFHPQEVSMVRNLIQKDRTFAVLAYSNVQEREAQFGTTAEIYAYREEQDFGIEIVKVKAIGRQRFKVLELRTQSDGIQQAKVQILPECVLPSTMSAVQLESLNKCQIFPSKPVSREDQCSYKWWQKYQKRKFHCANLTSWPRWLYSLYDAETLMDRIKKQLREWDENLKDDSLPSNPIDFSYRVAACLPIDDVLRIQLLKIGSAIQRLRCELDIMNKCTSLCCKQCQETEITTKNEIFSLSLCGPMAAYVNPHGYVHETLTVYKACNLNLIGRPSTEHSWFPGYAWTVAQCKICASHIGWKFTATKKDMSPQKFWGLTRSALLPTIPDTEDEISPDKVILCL
T5 sequence (Q16531 whole entry partner): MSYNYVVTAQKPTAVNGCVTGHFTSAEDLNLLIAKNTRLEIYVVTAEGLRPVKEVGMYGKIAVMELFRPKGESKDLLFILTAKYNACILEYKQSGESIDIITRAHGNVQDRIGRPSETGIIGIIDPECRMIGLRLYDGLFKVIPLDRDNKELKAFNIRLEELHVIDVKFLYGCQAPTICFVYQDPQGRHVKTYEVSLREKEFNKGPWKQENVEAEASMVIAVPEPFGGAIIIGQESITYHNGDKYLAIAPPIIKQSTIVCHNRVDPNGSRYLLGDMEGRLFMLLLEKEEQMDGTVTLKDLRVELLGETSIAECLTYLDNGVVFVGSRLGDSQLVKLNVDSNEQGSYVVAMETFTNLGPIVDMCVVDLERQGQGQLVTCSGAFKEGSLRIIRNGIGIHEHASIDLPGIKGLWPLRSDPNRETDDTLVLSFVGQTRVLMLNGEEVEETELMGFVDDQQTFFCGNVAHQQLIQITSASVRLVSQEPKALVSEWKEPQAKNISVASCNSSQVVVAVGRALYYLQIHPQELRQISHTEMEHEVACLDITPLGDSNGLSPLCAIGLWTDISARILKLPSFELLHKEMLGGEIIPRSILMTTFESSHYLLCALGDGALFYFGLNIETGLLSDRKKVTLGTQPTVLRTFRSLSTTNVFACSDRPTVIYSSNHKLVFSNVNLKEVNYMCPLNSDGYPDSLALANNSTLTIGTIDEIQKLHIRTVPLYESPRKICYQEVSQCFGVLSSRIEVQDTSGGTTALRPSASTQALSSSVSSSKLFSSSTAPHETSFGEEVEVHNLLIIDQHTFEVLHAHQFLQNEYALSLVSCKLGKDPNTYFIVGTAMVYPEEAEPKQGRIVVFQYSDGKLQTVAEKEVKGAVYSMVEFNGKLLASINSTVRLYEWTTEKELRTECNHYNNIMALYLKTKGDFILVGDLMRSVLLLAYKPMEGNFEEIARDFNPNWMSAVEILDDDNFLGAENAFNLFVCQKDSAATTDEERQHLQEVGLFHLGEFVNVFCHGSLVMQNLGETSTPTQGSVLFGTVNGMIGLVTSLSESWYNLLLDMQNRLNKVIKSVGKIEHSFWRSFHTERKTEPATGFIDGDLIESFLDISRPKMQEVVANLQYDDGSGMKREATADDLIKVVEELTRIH
T2 sequence (P48729 whole entry): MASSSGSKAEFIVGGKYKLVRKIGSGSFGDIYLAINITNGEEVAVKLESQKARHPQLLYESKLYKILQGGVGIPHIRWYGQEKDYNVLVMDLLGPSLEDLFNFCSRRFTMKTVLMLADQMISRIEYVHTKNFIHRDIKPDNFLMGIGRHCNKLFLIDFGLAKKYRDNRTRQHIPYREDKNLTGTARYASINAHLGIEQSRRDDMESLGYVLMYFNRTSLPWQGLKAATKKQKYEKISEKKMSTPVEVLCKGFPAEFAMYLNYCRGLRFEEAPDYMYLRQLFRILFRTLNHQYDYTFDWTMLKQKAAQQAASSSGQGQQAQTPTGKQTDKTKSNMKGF
T2 sequence (Q96SW2 whole entry): as the sequence (Q96SW2 whole entry) above
T2 sequence (Q16531 whole entry partner): as the sequence (Q16531 whole entry partner) above
T3 sequence (Q9UKS7 whole entry): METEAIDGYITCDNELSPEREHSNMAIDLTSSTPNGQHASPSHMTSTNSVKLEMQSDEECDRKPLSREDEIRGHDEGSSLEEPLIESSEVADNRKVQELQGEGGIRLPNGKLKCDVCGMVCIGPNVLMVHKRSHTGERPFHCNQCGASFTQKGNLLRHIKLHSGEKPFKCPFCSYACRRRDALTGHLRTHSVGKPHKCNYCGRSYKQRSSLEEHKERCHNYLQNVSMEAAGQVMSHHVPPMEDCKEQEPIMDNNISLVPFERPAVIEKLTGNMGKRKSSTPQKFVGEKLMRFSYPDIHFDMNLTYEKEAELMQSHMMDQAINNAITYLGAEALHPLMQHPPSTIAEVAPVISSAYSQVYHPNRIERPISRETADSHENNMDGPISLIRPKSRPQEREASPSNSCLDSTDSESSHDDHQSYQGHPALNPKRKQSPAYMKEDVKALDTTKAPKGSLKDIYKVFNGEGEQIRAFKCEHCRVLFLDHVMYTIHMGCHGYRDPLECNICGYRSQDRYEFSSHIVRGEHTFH
T3 sequence (Q96SW2 whole entry): as the sequence (Q96SW2 whole entry) above
T3 sequence (Q16531 whole entry partner): as the sequence (Q16531 whole entry partner) above
T1 sequence (Q13422 whole entry Q146F): as the sequence (Q13422 whole entry) above, with Q146F counted along it
T6 sequence (P15170 whole entry): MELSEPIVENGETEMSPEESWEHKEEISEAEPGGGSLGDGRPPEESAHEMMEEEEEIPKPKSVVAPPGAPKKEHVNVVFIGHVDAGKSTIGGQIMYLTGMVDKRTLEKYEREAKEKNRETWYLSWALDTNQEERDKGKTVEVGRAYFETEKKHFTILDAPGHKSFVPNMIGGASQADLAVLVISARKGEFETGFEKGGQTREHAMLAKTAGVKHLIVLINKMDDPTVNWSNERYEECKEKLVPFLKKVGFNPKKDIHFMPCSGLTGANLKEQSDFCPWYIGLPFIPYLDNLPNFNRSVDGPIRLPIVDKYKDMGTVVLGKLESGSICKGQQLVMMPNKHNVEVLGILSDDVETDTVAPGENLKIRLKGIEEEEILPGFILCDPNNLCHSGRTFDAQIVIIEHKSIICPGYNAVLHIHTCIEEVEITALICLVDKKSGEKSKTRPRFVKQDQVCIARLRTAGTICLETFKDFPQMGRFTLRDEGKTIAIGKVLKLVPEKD
T6 sequence (Q96SW2 whole entry): as the sequence (Q96SW2 whole entry) above
T6 sequence (Q16531 whole entry partner): as the sequence (Q16531 whole entry partner) above
T4 sequence (Q9UKT9 whole entry): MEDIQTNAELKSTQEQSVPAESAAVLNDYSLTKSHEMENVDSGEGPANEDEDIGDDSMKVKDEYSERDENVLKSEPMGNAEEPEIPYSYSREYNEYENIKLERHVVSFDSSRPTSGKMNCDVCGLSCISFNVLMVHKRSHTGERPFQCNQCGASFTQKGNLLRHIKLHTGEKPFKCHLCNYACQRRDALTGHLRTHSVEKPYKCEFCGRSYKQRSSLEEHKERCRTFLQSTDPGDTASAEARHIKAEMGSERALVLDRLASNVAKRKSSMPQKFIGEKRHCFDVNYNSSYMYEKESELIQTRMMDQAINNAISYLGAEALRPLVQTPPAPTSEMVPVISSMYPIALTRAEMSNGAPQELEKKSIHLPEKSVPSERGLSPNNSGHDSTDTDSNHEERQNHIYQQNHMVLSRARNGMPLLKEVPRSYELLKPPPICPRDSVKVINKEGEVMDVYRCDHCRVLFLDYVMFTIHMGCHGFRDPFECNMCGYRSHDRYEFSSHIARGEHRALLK
T4 sequence (Q96SW2 whole entry): as the sequence (Q96SW2 whole entry) above
T4 sequence (Q16531 whole entry partner): as the sequence (Q16531 whole entry partner) above
CAR tagged with WT ZNF2_3, sequence (Q13422 other isoform, or with tags, fused parts or gaps): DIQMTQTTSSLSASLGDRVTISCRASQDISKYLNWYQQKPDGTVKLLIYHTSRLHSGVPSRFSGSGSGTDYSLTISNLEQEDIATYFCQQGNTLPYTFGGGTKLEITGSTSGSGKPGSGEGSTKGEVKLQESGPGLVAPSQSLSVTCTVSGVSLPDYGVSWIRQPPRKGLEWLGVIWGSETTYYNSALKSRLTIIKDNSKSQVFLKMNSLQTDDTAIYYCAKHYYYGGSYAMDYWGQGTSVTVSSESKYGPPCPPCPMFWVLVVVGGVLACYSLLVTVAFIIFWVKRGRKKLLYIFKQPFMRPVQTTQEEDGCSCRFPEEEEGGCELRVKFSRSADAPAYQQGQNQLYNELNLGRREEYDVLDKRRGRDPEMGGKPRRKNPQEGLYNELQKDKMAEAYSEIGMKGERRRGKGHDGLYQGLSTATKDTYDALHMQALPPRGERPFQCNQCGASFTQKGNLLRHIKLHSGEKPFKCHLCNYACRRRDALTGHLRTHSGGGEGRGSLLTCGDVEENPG
CAR tagged with WT ZNF2_3, sequence (Q96SW2 whole entry): as the sequence (Q96SW2 whole entry) above
CAR tagged with WT ZNF2_3, sequence (Q16531 whole entry, further chain): as the sequence (Q16531 whole entry partner) above

## O=C1CCC(N2Cc3cc(C4CCN(Cc5ccc6ncsc6c5)CC4)ccc3C2=O)C(=O)N1 (stereo not drawn) [Compound D, 3-[5-[1-(1,3-benzothiazol-6-ylmethyl)-4-piperidyl]-1-oxo-isoindolin-2-yl]piperidine-2,6-dione]
[1]; Degron Q1F (from Table 1)
  Ymin (%): 4.2%
[1]; [11]
  DC50: 0.7 nM
[1]; [12]
  DC50: < 1 nM
[1]; [13]
  Ymin (Q1F degron): 4.2%
[1]; [14]
  DC50: 0.7 nM
ePL-tagged CK1a
  Ymin (%): 81%
ePL-tagged CK1a; [15]
  DC50: > 10000 nM
Helios
  Ymin (%): 24%
  degradation of Helios (in words): some degradation of Helios
  DC50: 460 nM
[2]; 0.85 or 8.5 mg/kg orally (both doses), blood at 8 hours
  CD3+ CAR+ cells remaining: < 5%
[2]; 0.85 or 8.5 mg/kg orally, 24 hours
  CAR level in vivo: remained significantly degraded
[2]; 48 hours after dosing
  CAR expression in vivo: substantially restored
[3]
  selectivity for the Q1F degron (in words): selective for the Q1F degron
ePL-tagged Aiolos
  Ymin (%): 87%
  DC50: > 10000 nM
ePL-tagged Ikaros
  Ymin (%): 93%
ePL-tagged Ikaros; [15]
  DC50: > 10000 nM
ePL-tagged GSPT1
  Ymin (%): 96%
ePL-tagged GSPT1; [15]
  DC50: > 10000 nM
[4]
  expansion and cytolytic function of degron-tagged CAR T cells: decreased expansion and cytolytic function

## O=C1CCC(N2Cc3cc(C(=O)N4Cc5cccnc5C4)ccc3C2=O)C(=O)N1 (stereo not drawn) [Compound B, 3-(5-(6,7-dihydro-5H-pyrrolo[3,4-b]pyridine-6-carbonyl)-1-oxoisoindolin-2-yl)piperidine-2,6-dione]
[1]; Degron Q1F (from Table 1)
  Ymin (%): 1.7%
[1]; [11]
  DC50: 4.8 nM
[1]; [12]
  DC50: < 5 nM
[1]; [13]
  Ymin (Q1F degron): 1.7%
[1]; [14]
  DC50: 4.8 nM
ePL-tagged CK1a
  Ymin (%): 82%
ePL-tagged CK1a; [15]
  DC50: > 10000 nM
[5]
  decrease of signaling (tdTomato reporter): around 75%
Helios
  Ymin (%): 65%
  degradation of Helios (in words): some degradation activity against Helios
  DC50: > 10000 nM
IKZF1 ZNF2 Q1F
  ubiquitination of IKZF1 ZNF2 Q1F: heavily ubiquitinated
ePL-tagged Aiolos
  Ymin (%): 93%
  DC50: > 10000 nM
ePL-tagged Ikaros
  Ymin (%): 91%
ePL-tagged Ikaros; [15]
  DC50: > 10000 nM
ePL-tagged GSPT1
  Ymin (%): 72%
  degradation of GSPT1 (in words): some degradation activity against GSPT1
ePL-tagged GSPT1; [15]
  DC50: 54 nM

## O=C1CCC(N2Cc3c(OCc4ccc(CN5CCN(c6ccc(F)cc6F)CC5)cc4)cccc3C2=O)C(=O)N1 (stereo not drawn) [Compound A]
ePL-tagged CK1a
  degradation of CK1a (in words): degraded CK1a to a significant extent
ePL-tagged CK1a; read-out: EC50
  DC50: 190 nM
[6]
  CAR degradation: ~55%
[7]
  response of G6N mutant tagged CAR: failed to respond
[8]
  inhibition of CAR activity: strongly inhibit CAR activity
[9]
  CAR degradation (WT ZNF2_3 degron): deep CAR degradation
[10]
  Erk phosphorylation (pErk): attenuated
Aurora A
  Aurora A levels (western blot): decreased
Tagged TOX
  tagged TOX levels (western blot): decreased
ePL-tagged Ikaros; read-out: EC50
  DC50: 22 nM
ePL-tagged GSPT1; read-out: EC50
  DC50: 39 nM
